Test results as given in the supplement of paper PMC8253809.

Experiments:
DIPGX29 [1] = H3.3 K27M diffuse intrinsic pontine glioma line; assay: EC50 (inflection of fitted growth-inhibition curve) (log10 M)
How it was run: (§1)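 Viability readout was CellTiter-Glo luminescence, log2-transformed, normalised per plate to % activity between negative (solvent) and positive control wells, then pooled. This followed a 7-day exposure (3 days for iAstro) at 37 °C, 5% CO2 to a 10-point threefold dilution series (mean top concentration 35 μM), pin-tool delivered in triplicate to patient-derived pHGG/DIPG cell lines and astrocyte controls on 1% Geltrex-coated 384-well plates. Three- and four-parameter log-logistic fits were compared, and the one with the lowest AICc supplied EC50 and maximal response (yFin).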

HGGX6 [2] = H3.3 G34R paediatric high-grade glioma line; assay: as above
How it was run: as §1

HGGX39 [3] = paediatric high-grade glioma line; assay: as above
How it was run: as §1

DIPGX37 [4] = H3.3 K27M diffuse intrinsic pontine glioma line; assay: as above
How it was run: as §1

DIPGX29 [5] = assay: maximal growth inhibition (yFin) relative to DMSO / staurosporine; higher = more efficacious
How it was run: as §1

HGGX6 [6] = assay: as above
How it was run: as §1

HGGX39 [7] = assay: as above
How it was run: as §1

DIPGX37 [8] = assay: as above
How it was run: as §1

DIPGX29 [9] = assay: area under dose-response curve of % growth inhibition (log2 RLU vs DMSO / staurosporine), 1e-11 to 1e-4 M (% x log10 M); higher = more growth inhibition
How it was run: (§2)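 Patient-derived pHGG/DIPG cell lines and astrocytes, cultured on 384-well plates with a 1% Geltrex coating, were given a 10-point threefold dilution series (mean top concentration 35 μM) in triplicate for 7 days (iAstro 3 days) at 37 °C, 5% CO2. CellTiter-Glo signal, log2-transformed and normalised per plate to % activity against solvent and positive controls, was fitted with a log-logistic curve or, where the sigmoid fit failed, a smoothing spline. Area under the curve was then computed by the trapezoid rule.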

HGGX6 [10] = assay: as above
How it was run: as §2

HGGX39 [11] = assay: as above
How it was run: as §2

DIPGX37 [12] = assay: as above
How it was run: as §2

SMILES	EC50 (log10 M) (DIPGX29 [1])	EC50 (log10 M) (HGGX6 [2])	EC50 (log10 M) (HGGX39 [3])	EC50 (log10 M) (DIPGX37 [4])	maximal growth inhibition (DIPGX29 [5]) [%]	maximal growth inhibition (HGGX6 [6]) [%]	maximal growth inhibition (HGGX39 [7]) [%]	maximal growth inhibition (DIPGX37 [8]) [%]	area under dose-response curve (DIPGX29 [9])	area under dose-response curve (HGGX6 [10])	area under dose-response curve (HGGX39 [11])	area under dose-response curve (DIPGX37 [12])
Nc1c2ccccc2nc2ccccc12 [9-AMINOACRIDINE]	-4.84	-4.82	-4.83	-4.83	71	80.2	89.5	85.8	59.1	65.1	74	70.3
CC[C@@]1(O)C[C@H](O[C@H]2C[C@H](N(C)C)[C@H](O[C@H]3C[C@H](O)[C@H](O[C@H]4CCC(=O)[C@H](C)O4)[C@H](C)O3)[C@H](C)O2)c2c(cc3c(c2O)C(=O)c2c(O)cccc2C3=O)[C@H]1C(=O)OC [ACLARUBICIN]	-5.38	-5.33	-5.35	-6.79	58.7	62.1	65.6	62.1	96.6	111	118	173
CCCCC(CC)CNC(=N)NC(=N)NCCCCCCNC(=N)NC(=N)NCC(CC)CCCC (centres undefined) [ALEXIDINE]	-6.06	-5.48	-5.64	-5.67	63.3	73.3	80.3	78.2	130	105	126	126
CCCCc1oc2ccccc2c1C(=O)c1cc(I)c(OCCN(CC)CC)c(I)c1 [AMIODARONE]	-4.79	-4.8	-4.83	-4.76	80	78.8	89.3	83	63.6	63	74.6	63.2
CCOC(=O)C1=C(COCCN)NC(C)=C(C(=O)OC)C1c1ccccc1Cl (centres undefined) [AMLODIPINE]	-4.86	-4.75	-4.83	-4.82	80.4	85.6	91.4	88	69.2	64.5	75.8	72.4
CCC(C)(C)c1ccc(CC(C)CN2C[C@@H](C)O[C@@H](C)C2)cc1 (some centres undefined) [AMOROLFINE]	-5.09	-5.36	-5.11	-5.29	33.2	41.6	72.1	48	47.6	58.4	103	62.1
C[C@@H](O[C@H]1OCCN(Cc2n[nH]c(=O)[nH]2)[C@H]1c1ccc(F)cc1)c1cc(C(F)(F)F)cc(C(F)(F)F)c1 [APREPITANT]	-4.8	-4.81	-4.81	-4.81	85.5	72.7	80	81.7	76.6	58.5	64.5	66.2
CC[C@H](CC#N)OC(=O)N[C@@H](C)c1cccc(NC(=O)Nc2ccc(-c3cnco3)c(OC)c2)c1 [AVN-944]	-6.32	-5.95	-5.67	-6.4	34.3	27.9	39.3	35.2	79.5	48	54.3	84.4
O=C1COc2c(CCNCCN(C(=O)CCNCCc3ccc(Cl)c(Cl)c3)C3CCCCC3)ccc(O)c2N1 [AZ505]	-4.86	-4.83	-4.82	-4.56	82.3	74.2	61.1	60.3	70.9	61.6	49.1	33.8
COc1cc(OC2CCN(C)CC2)ccc1Nc1ncc2c(n1)n(C1CCCC1)c(=O)n2C [AZ3146]	-4.86	-4.82	-4.85	-4.79	103	96.5	105	110	92.5	86.9	88.5	86.8
Nc1nc2n[nH]nc2c(=O)[nH]1 [AZAGUANINE-8]	-5.14	-5.25	-5.31	-5.07	38.3	25.9	54.2	53.8	45	31.2	74.2	58.7
CC1=C(C(=O)OC(C)C)C(c2cccc([N+](=O)[O-])c2)C(C(=O)OC2CN(C(c3ccccc3)c3ccccc3)C2)=C(N)N1 (centres undefined) [AZELNIDIPINE]	-4.91	-4.89	-4.94	-4.91	81.9	91.3	99.9	86.1	74.8	80.8	93.9	83.2
Cc1c(-c2ccc(O)cc2)n(Cc2ccc(OCCN3CCCCCC3)cc2)c2ccc(O)cc12 [BAZEDOXIFENE]	-4.97	-4.93	-5	-4.91	79.1	75.9	87.3	83.5	76.7	70.5	87.8	75.4
CN(C)CCCOc1nn(Cc2ccccc2)c2ccccc12 [BENZYDAMINE]	-5.29	-5.19	-5.5	-5.21	47.7	53.3	81.4	85.5	61.8	63.8	123	105
Cc1nnc(C[C@@H]2C=C(c3ccc(Cl)cc3)c3ccccc3-n3c(C)nnc32)o1 [BET-BAY 002]	-5.5	-5.39	-5.19	-6.21	21.8	27	39.7	26.3	29.9	35.1	42.3	58.2
CCN1CCN(c2cc(-c3ccc(F)cc3)c3c(n2)CCCCCC3)CC1 [BLONANSERIN]	-5.17	-4.81	-4.94	-4.93	53.1	79.5	85.3	77.4	63.1	64.4	81.4	73.5

SMILES	EC50 (log10 M) (DIPGX29 [1])	EC50 (log10 M) (HGGX6 [2])	EC50 (log10 M) (HGGX39 [3])	EC50 (log10 M) (DIPGX37 [4])	maximal growth inhibition (DIPGX29 [5]) [%]	maximal growth inhibition (HGGX6 [6]) [%]	maximal growth inhibition (HGGX39 [7]) [%]	maximal growth inhibition (DIPGX37 [8]) [%]	area under dose-response curve (DIPGX29 [9])	area under dose-response curve (HGGX6 [10])	area under dose-response curve (HGGX39 [11])	area under dose-response curve (DIPGX37 [12])
COc1cc(Nc2c(C#N)cnc3cc(OCCCN4CCN(C)CC4)c(OC)cc23)c(Cl)cc1Cl [BOSUTINIB]	-4.78	-4.75	-4.74	-4.76	74.1	75.7	79.3	71.8	75.5	74.3	71.8	80.4
CCOC(=O)Nc1cc(-c2ccc(C)c(NS(C)(=O)=O)c2)nn2c(C)nnc12 [BROMOSPORINE]	-5.25	-5.51	-5.01	-5.23	25.2	21.4	42.7	53.4	32.2	33	43.6	66.5
CCCCOc1ccc(CC(=O)NO)cc1 [BUFEXAMAC]	-4.28	-4.33	-4.28	-4.2	57.1	79.2	95.6	76.7	15.7	25.5	27.2	15.4
Nc1cc(C(F)(F)F)c(-c2cc(N3CCOCC3)nc(N3CCOCC3)n2)cn1 [BUPARLISIB]	-5.14	-6.21	-5.56	-5.55	67.8	21.8	41.2	59.3	81.3	43.9	58.2	95.5
Clc1ccc(CCC(Cn2ccnc2)Sc2c(Cl)cccc2Cl)cc1 (centres undefined) [BUTOCONAZOLE]	-4.86	-4.79	-4.87	-4.84	57	47.6	85.9	70.3	59.7	37.8	80.5	69.4
Cc1cc(C2CCCCC2)n(O)c(=O)c1 [CICLOPIROX]	-6.42	-6.23	-5.04	-6.44	57.2	63.9	72.3	58.3	138	142	84.1	142
C[C@@H](NCCCc1cccc(C(F)(F)F)c1)c1cccc2ccccc12 [CINACALCET]	-5.03	-5.03	-5.05	-5.04	82.1	84.4	94.2	90.5	99.9	98.5	111	112
CC(C)/N=c1\cc2n(-c3ccc(Cl)cc3)c3ccccc3nc-2cc1Nc1ccc(Cl)cc1 [CLOFAZIMINE]	-5.16	-4.91	-4.88	-4.91	54.4	71.5	90.6	83.8	76.3	65.3	79.8	84.9
CCN(CC)CCOc1ccc(C(=C(Cl)c2ccccc2)c2ccccc2)cc1 [CLOMIPHENE]	-4.92	-5.11	-5.71	-5.2	77	71.4	81.6	84.8	71.2	80.2	139	102
COc1cccc2c1C(=O)c1c(O)c3c(c(O)c1C2=O)C[C@@](O)(C(C)=O)C[C@@H]3O[C@H]1C[C@H](N)[C@H](O)[C@H](C)O1 [DAUNORUBICIN]	-5.69	-5.62	-6.13	-5.94	83.3	76.4	76.1	82.2	141	124	159	160
CCCCCCCCCCCC[N+](C)(C)CCOc1ccccc1 [DOMIPHEN]	-5.18	-5.11	-5.59	-5.28	80.5	71.7	81	85.2	95.4	79.9	129	109
CCCCOc1ccc(C(=O)CCN2CCCCC2)cc1 [DYCLONINE]	-4.83	-5.02	-5.12	-5.35	87.1	87.9	98.8	95.1	92.7	89.2	110	129
OCCN1CCN(CCCN2c3ccccc3Sc3ccc(C(F)(F)F)cc32)CC1 [FLUFENAZINE]	-4.74	-4.76	-4.77	-4.74	61.6	63.5	65.9	65.2	45.7	67.4	64	59.8
Fc1ccc(C(c2ccc(F)cc2)N2CCN(C/C=C/c3ccccc3)CC2)cc1 [FLUNARIZINE]	-4.86	-4.86	-4.91	-4.84	71.7	65.9	83	74.5	61.5	56.4	73.5	62.8
C[C@@H](O[C@H]1OCCN(Cc2nn(P(=O)(O)O)c(=O)[nH]2)[C@H]1c1ccc(F)cc1)c1cc(C(F)(F)F)cc(C(F)(F)F)c1 [FOSAPREPITANT]	-4.84	-4.84	-4.81	-4.83	60.6	56	82.4	69.8	63.6	47.1	66.7	70.6
CCn1c(=O)c(-c2ccc(Cl)cc2Cl)cc2cnc(Nc3ccc(N4CCNCC4)c(F)c3)nc21 [FRAX486]	-5.23	-5.32	-5.64	-5.3	80.4	73.5	84.5	81	135	97.4	139	142
